# According to paper PMC12624743 (ACS Infectious Diseases, 2025):
# Assays:
# Assay type in all cases: biochemical
# [1] = molecular target: T1, N. gonorrhoeae topoisomerase IV ParC^D86N (Neisseria gonorrhoeae, UniProt P48374, D86N); test: Topoisomerase IV-catalyzed DNA decatenation assay, ParC^D86N
# T1 construct: His; made in house
# T1 sequence (P48374 1-768 D86N): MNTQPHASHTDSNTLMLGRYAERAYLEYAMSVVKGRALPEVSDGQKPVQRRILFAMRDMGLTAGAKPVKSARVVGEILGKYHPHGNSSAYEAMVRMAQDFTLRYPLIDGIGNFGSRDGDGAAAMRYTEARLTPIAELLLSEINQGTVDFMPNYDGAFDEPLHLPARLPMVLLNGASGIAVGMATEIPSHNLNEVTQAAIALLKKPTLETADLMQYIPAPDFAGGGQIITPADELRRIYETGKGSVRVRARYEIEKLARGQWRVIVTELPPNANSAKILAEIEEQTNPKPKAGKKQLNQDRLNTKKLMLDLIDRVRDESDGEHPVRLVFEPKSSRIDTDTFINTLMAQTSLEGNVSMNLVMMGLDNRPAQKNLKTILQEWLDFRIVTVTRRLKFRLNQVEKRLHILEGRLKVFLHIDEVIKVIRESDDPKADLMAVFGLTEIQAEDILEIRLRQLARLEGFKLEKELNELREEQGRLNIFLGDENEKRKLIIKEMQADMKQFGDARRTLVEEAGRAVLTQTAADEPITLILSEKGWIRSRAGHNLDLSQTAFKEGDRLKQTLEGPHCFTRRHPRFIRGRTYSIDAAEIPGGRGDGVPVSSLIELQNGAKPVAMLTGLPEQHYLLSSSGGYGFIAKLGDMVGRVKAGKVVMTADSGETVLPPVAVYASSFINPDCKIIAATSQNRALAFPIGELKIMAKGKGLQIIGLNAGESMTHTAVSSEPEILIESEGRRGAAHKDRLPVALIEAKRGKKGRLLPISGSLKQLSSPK
# Method: All proteins were His-tagged. N. gonorrhoeae WT gyrase (GyrA, GyrB) and topoisomerase IV (ParC, ParE) subunits as well as mutant GyrA^D90N, GyrA^A92T, GyrA^S91F, and GyrA^S91F/D95G gyrase and ParC^D86N and ParC^S88P topoisomerase IV were prepared as described previously. , N. gonorrhoeae mutant GyrA^D95G gyrase and mutant ParC^S87N and ParC^E91G topoisomerase IV were generated using a QuickChange II XL site-directed mutagenesis kit (Agilent Technologies) with custom primers for the desired mutations. Mutant N. gonorrhoeae GyrA and ParC subunits were expressed and purified as described by Ashley et al. with the following modifications to optimize protein expression and lysis: (1) GyrA^D95G was expressed for 2.5 h and ParC^S87N and ParC^E91G were expressed for 3 h before harvesting, and (2) cells were lysed by sonication using a digital sonifier (Branson). The identities of all constructs were confirmed by DNA sequencing, and all enzymes were stored at −80 °C. In all assays, N. gonorrhoeae gyrase or topoisomerase IV was used as a 1:1 GyrA:GyrB or ParC:ParE mixture, respectively, and the stated enzyme concentration reflects that of the holoenzyme (A2B2). […]
# [2] = molecular target: T2, N. gonorrhoeae gyrase GyrA^D95G (Neisseria gonorrhoeae, UniProt P48371, D95G); test: Gyrase-catalyzed DNA supercoiling assay, GyrA^D95G
# T2 construct: His; made in house
# Method: All proteins were His-tagged. N. gonorrhoeae WT gyrase (GyrA, GyrB) and topoisomerase IV (ParC, ParE) subunits as well as mutant GyrA^D90N, GyrA^A92T, GyrA^S91F, and GyrA^S91F/D95G gyrase and ParC^D86N and ParC^S88P topoisomerase IV were prepared as described previously. , N. gonorrhoeae mutant GyrA^D95G gyrase and mutant ParC^S87N and ParC^E91G topoisomerase IV were generated using a QuickChange II XL site-directed mutagenesis kit (Agilent Technologies) with custom primers for the desired mutations. […] The identities of all constructs were confirmed by DNA sequencing, and all enzymes were stored at −80 °C. In all assays, N. gonorrhoeae gyrase or topoisomerase IV was used as a 1:1 GyrA:GyrB or ParC:ParE mixture, respectively, and the stated enzyme concentration reflects that of the holoenzyme (A2B2).
# Samples were mixed with 2 μL of loading dye [60% sucrose, 10 mM Tris–HCl (pH 7.9), 0.5% bromophenol blue, and 0.5% xylene cyanol FF] and incubated at 45 °C for 2 min before being subjected to electrophoresis on 1% agarose gels in 100 mM Tris-borate (pH 8.3) and 2 mM EDTA. […] DNA bands were visualized with medium-range ultraviolet light and quantified using an Alpha Innotech digital imaging system (Protein Simple). DNA supercoiling was monitored by the conversion of relaxed to supercoiled plasmid.
# [3] = molecular target: T2, N. gonorrhoeae gyrase GyrA^D95G; test: DNA cleavage assay, GyrA^D95G gyrase
# Method: Some experiments replaced MgCl2 with an equivalent concentration of CaCl2 (10 mM), or 1.5 mM ATP was added to assay mixtures.
# Reactions were incubated at 37 °C for 30 min with WT and mutant (GyrA^D90N, GyrA^A92T, GyrA^S91F, GyrA^D95G, or GyrA^S91F/D95G) N. gonorrhoeae gyrase, 10 min with WT N. gonorrhoeae topoisomerase IV, and 20 min with mutant (ParC^D86N, ParC^S88P, ParC^S87N, or ParC^E91G) N. gonorrhoeae topoisomerase IV. Enzyme-DNA cleavage complexes were trapped by adding 2 μL of 5% SDS followed by 2 μL of 250 mM EDTA (pH 8.0). Proteinase K was added (2 μL of a 0.8 mg/mL solution), and reaction mixtures were incubated at 45 °C for 30 min to digest the enzyme. Samples were mixed with 2 μL of loading buffer and heated at 45 °C for 2 min prior to electrophoresis in 1% agarose gels in 40 mM Tris-acetate (pH 8.3), and 2 mM EDTA containing 0.5 μg/mL ethidium bromide. DNA bands were visualized by midrange ultraviolet light and quantified using an Alpha Innotech digital imaging system (Protein Simple). Single-stranded DNA cleavage was monitored by the conversion of negatively supercoiled to nicked plasmid molecules.
# T2 sequence (P48371 whole entry D95G): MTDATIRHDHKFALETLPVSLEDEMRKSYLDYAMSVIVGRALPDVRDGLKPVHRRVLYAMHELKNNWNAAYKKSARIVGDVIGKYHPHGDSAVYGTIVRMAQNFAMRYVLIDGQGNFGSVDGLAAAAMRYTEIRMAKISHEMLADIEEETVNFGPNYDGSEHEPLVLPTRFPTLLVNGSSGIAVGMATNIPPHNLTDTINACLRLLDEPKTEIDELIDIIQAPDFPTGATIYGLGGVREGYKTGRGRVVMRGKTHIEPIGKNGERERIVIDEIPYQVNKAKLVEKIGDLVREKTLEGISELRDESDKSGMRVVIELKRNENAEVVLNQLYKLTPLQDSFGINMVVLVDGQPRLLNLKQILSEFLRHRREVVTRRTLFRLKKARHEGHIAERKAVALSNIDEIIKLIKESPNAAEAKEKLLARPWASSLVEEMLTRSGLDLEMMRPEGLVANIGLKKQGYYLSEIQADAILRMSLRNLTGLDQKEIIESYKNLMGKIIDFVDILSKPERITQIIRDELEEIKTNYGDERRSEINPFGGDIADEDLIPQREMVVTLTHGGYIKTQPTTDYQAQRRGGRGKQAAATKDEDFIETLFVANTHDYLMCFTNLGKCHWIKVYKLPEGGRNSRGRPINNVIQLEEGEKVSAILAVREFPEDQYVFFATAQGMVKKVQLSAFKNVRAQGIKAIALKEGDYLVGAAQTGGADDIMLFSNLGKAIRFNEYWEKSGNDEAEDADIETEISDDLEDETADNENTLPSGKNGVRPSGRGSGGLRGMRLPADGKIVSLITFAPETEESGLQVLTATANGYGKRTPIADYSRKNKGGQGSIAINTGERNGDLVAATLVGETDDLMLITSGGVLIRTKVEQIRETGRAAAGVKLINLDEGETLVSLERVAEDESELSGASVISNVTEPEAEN
# T2 sequence (P22118 whole entry partner): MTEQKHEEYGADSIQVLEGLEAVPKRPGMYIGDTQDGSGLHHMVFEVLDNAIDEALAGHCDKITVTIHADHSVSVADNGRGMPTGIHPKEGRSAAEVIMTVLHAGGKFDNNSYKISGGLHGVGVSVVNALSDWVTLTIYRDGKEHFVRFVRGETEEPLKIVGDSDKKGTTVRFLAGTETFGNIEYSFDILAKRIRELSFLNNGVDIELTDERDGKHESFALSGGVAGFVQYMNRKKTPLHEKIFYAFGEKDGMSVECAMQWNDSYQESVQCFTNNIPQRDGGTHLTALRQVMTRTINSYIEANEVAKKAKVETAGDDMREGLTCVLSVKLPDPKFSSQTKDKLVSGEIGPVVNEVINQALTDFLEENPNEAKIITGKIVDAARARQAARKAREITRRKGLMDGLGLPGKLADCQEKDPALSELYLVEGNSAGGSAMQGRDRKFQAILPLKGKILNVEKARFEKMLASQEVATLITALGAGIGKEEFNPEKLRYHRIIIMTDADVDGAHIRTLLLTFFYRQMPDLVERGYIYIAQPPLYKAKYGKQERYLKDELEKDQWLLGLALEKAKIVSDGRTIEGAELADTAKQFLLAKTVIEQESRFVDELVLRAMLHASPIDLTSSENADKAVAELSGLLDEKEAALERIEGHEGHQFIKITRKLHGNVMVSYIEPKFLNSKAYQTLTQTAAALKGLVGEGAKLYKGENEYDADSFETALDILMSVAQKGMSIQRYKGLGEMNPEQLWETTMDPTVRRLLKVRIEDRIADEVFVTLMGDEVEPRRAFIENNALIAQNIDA
compound,measurement,setting,value
O=c1ccc2ncc(=O)n3c2n1C[C@H]3CN1CCC(NCc2cc3c(cn2)OCCC3)CC1 [gepotidacin],IC50,"[1]; ParC D86N topoisomerase IV, read-out: IC50, inhibition of DNA decatenation",> 200 µM
same,inhibition of DNA decatenation,"[1]; ParC D86N, gepotidacin concentrations as high as 200 μM",no inhibition
same,IC50,"[2]; GyrA D95G gyrase, read-out: IC50, inhibition of DNA supercoiling",2000 nM
same,fold lower supercoiling IC50 vs WT gyrase,[2]; GyrA D95G vs WT,~2.6 fold
same,"Adj-Max Cleavage, single-stranded DNA breaks",[3],17.9%
same,EC50,"[3]; GyrA D95G gyrase, read-out: CC50, single-stranded DNA cleavage",1300 nM
same,single-stranded DNA cleavage compared with WT gyrase,[3]; GyrA D95G vs WT,nearly indistinguishable
